Source: patent US9650395B2, “Antibacterial compounds and methods for use” (PTC Therapeutics, Inc., priority 2011, dated 2017)
In brackets after ≈: the same amount, converted by molar mass. Like-named read-outs stand apart in the source and are kept apart here.

Tests used:
[1] = tested on: super sensitive Gram-negative Escherichia coli (E. coli) BAS849; experiment: Antibacterial activity, microbroth dilution MIC, E. coli BAS849; type: cell-based; details: for MIC: Escherichia coli, read-out: MIC, BAS849
[2] = tested on: control Gram-negative E. coli 25922 strain; experiment: Antibacterial activity, microbroth dilution MIC, E. coli 25922; type: cell-based, Escherichia coli; details: E. coli 25922, microbroth dilution; for MIC: Escherichia coli, read-out: MIC, 25922
[3] = tested on: Gram-positive Staphylococcus aureus (S. aureus) 29213; experiment: Antibacterial activity, microbroth dilution MIC, S. aureus 29213; type: cell-based; details: S. aureus 29213, microbroth dilution; for MIC: Staphylococcus aureus, read-out: MIC, 29213
[4] = tested on: quinolone resistant E. coli LZ3111; experiment: Antibacterial activity, MIC, quinolone resistant E. coli LZ3111; type: cell-based, Escherichia coli; details: for MIC: Escherichia coli, read-out: MIC, LZ3111
Excerpt: (§1) The antibacterial activity from a microbroth dilution method may be presented as the minimum inhibitory concentration (MIC in […]). The MIC value is the lowest concentration of a drug which prevents macroscopically visible bacterial growth under test conditions.
Mutations in these regions are known to confer a high level resistance to the quinolone class of antibiotics.

[5] = tested on: E. coli ELZ4000 (MDR clinical isolate); experiment: Antibacterial activity, MIC, MDR E. coli ELZ4000; type: cell-based, Escherichia coli; details: E. coli ELZ4000, MDR clinical isolate; for MIC: Escherichia coli, read-out: MIC ELZ4000
[6] = tested on: E. coli ELZ4251 (MDR clinical isolate); experiment: Antibacterial activity, MIC, MDR E. coli ELZ4251; type: cell-based, Escherichia coli; details: E. coli ELZ4251, MDR clinical isolate; for MIC: Escherichia coli, read-out: MIC ELZ4251
[7] = tested on: Acinetobacter baumannii (A. baumannii) BAA747; experiment: Antibacterial activity, MIC, A. baumannii BAA747; type: cell-based; details: A. baumannii BAA747; for MIC: Acinetobacter baumannii, read-out: MIC BAA747
[8] = tested on: Klebsiella pneumoniae (K. pneumoniae) 35657; experiment: Antibacterial activity, MIC, K. pneumoniae 35657; type: cell-based; details: for MIC: Klebsiella pneumoniae
[9] = tested on: Pseudomonas aeruginosa (P. aeruginosa) 27853; experiment: Antibacterial activity, MIC, P. aeruginosa 27853; type: cell-based; details: P. aeruginosa 27853; for MIC: Pseudomonas aeruginosa, read-out: MIC 27853
Excerpt: as §1
Antibacterial activity of test compounds against the Gram-negative bacterium Pseudomonas aeruginosa (P. aeruginosa) 27853 is shown in Table 5.

[10] = tested on: Haemophilus influenzae (H. influenzae) 49247; experiment: Antibacterial activity, MIC, H. influenzae 49247; type: cell-based; details: H. influenzae 49247; for MIC: Haemophilus influenzae, read-out: MIC 49247
Summary of the method: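 Antibacterial activity against the Gram-negative organism Haemophilus influenzae strain 49247 was measured by microbroth dilution. The minimum inhibitory concentration (MIC) was taken as the lowest drug concentration that stopped bacterial growth from being visible to the naked eye under the test conditions.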

[11] = tested on: Moraxella catarrhalis (M. catarrhalis) 25238; experiment: Antibacterial activity, MIC, M. catarrhalis 25238; type: cell-based; details: M. catarrhalis 25238; for MIC: Moraxella catarrhalis, read-out: MIC 25238
[12] = tested on: Neisseria meningitidis (N. meningitidis) 13090; experiment: Antibacterial activity, MIC, N. meningitidis 13090; type: cell-based; details: N. meningitidis 13090; for MIC: Neisseria meningitidis, read-out: MIC 13090
[13] = tested on: resistant A. baumannii MXX2240 (MDR clinical isolate); experiment: Antibacterial activity, MIC, resistant A. baumannii MXX2240; type: cell-based, Acinetobacter baumannii; details: resistant A. baumannii MMX2240, MDR clinical isolate
[14] = E. coli BAS849, microbroth dilution

| Compound | MIC [1, 14] | MIC [2] | MIC [3] | MIC [4] | MIC [5] | MIC [6] | MIC [7] | MIC [8] | MIC [9] | MIC [10] | MIC [11] | MIC [12] | other results |
| --- | --- | --- | --- | --- | --- | --- | --- | --- | --- | --- | --- | --- | --- |
| CCc1cc(C(=O)O)c(=O)[nH]c1-c1ccc(N(C)C)c(F)c1 [Cpd 93, 6-[4-(dimethylamino)-3-fluorophenyl]-5-ethyl-2-oxo-1,2-dihydropyridine-3-carboxylic acid] | < 1 µg/mL | 12.5 to 150 µg/mL (≈ 41.1 to 493 µM) | 12.5 to 150 µg/mL (≈ 41.1 to 493 µM) | 12.5 to 150 µg/mL (≈ 41.1 to 493 µM) | 12.5 to 150 µg/mL (≈ 41.1 to 493 µM) | 12.5 to 150 µg/mL (≈ 41.1 to 493 µM) | 12.5 to 150 µg/mL (≈ 41.1 to 493 µM) | 12.5 to 150 µg/mL (≈ 41.1 to 493 µM) | 12.5 to 150 µg/mL (≈ 41.1 to 493 µM) | < 1 µg/mL | < 1 µg/mL | < 1 µg/mL |  |
| CCc1c(-c2ccc(N(C)C)c(F)c2)[nH]c(=O)c(C(=O)O)c1O [Cpd 94, 6-[4-(dimethylamino)-3-fluorophenyl]-5-ethyl-4-hydroxy-2-oxo-1,2-dihydropyridine-3-carboxylic acid] | < 1 µg/mL | 12.5 to 150 µg/mL (≈ 39 to 468 µM) | 12.5 to 150 µg/mL (≈ 39 to 468 µM) | 12.5 to 150 µg/mL (≈ 39 to 468 µM) | 12.5 to 150 µg/mL (≈ 39 to 468 µM) | 12.5 to 150 µg/mL (≈ 39 to 468 µM) | 12.5 to 150 µg/mL (≈ 39 to 468 µM) | 12.5 to 150 µg/mL (≈ 39 to 468 µM) | 12.5 to 150 µg/mL (≈ 39 to 468 µM) | < 1 µg/mL | < 1 µg/mL | < 1 µg/mL |  |
| CN[C@@H]1CCC[C@@H]2CN(c3ccc(-c4[nH]c(=O)c(C(=O)O)c(O)c4C)cc3)C[C@@H]21.Cl [Cpd 260, 4-hydroxy-5-methyl-6-{4-[(3aR,4R,7aS)-4-(methylamino)octahydro-2H-isoiridol-2-yl]phenyl}-2-oxo-1,2-dihydropyridine-3-carboxylic acid hydrochloride] |  |  |  |  |  |  |  |  |  |  |  |  | MIC, BAS849 [1, 14]: ** (an MIC value between >3.5 μg/mL and ≦12.5 μg/mL is indicated by two stars (**)); MIC, 25922 [2]: ** (an MIC value between >3.5 μg/mL and ≦12.5 μg/mL is indicated by two stars (**)); MIC, 29213 [3]: *** (an MIC value between >1.0 μg/mL and ≦3.5 μg/mL is indicated by three stars (***)); MIC, LZ3111 ([4]; quinolone resistant E. coli LZ3111): **** (an MIC value of ≦1.0 μg/mL is indicated by four stars (****)); MIC ELZ4000 [5]: ** (an MIC value between >3.5 μg/mL and ≦12.5 μg/mL is indicated by two stars (**)); MIC ELZ4251 [6]: *** (an MIC value between >1.0 μg/mL and ≦3.5 μg/mL is indicated by three stars (***)); MIC BAA747 [7]: * (an MIC value between >12.5 μg/mL and ≦150 μg/mL is indicated by a single star (*)); MIC 35657 [8]: ** (an MIC value between >3.5 μg/mL and ≦12.5 μg/mL is indicated by two stars (**)); MIC 27853 [9]: * (an MIC value between >12.5 μg/mL and ≦150 μg/mL is indicated by a single star (*)); MIC 49247 [10]: * (an MIC value between >12.5 μg/mL and ≦150 μg/mL is indicated by a single star (*)); MIC 25238 [11]: ** (an MIC value between >3.5 μg/mL and ≦12.5 μg/mL is indicated by two stars (**)); MIC 13090 [12]: *** (an MIC value between >1.0 μg/mL and ≦3.5 μg/mL is indicated by three stars (***)) |
| CCc1c(-c2ccc(N3C[C@H]4CCCC[C@@]4(CN(C)C)C3)cc2)[nH]c(=O)c(C(=O)O)c1O.Cl [Cpd 266, 6-(4-{(3aR,7aS)-3a-[(dimethylamino)methyl]octahydro-2H-isoindol-2-yl}phenyl)-5-ethyl-4-hydroxy-2-oxo-1,2-dihydropyridine-3-carboxylic acid hydrochloride] | 1 to 3.5 µg/mL | 12.5 to 150 µg/mL | 3.5 to 12.5 µg/mL | 3.5 to 12.5 µg/mL | 12.5 to 150 µg/mL | 12.5 to 150 µg/mL | 12.5 to 150 µg/mL | 12.5 to 150 µg/mL | 12.5 to 150 µg/mL |  |  |  |  |
| CCc1c(-c2ccc(N3C[C@H]4CC[C@H](NC)[C@H]4C3)cc2)[nH]c(=O)c(C(=O)O)c1O.Cl [Cpd 267, 5-ethyl-4-hydroxy-6-{4-[(3aR,4S,6aS)-4-(methylamino)hexahydrocyclopenta[c]pyrrol-2(1H)-yl]phenyl}-2-oxo-1,2-dihydropyridine-3-carboxylic acid hydrochloride] | 1 to 3.5 µg/mL | 3.5 to 12.5 µg/mL | 12.5 to 150 µg/mL | 3.5 to 12.5 µg/mL |  |  | 12.5 to 150 µg/mL | 3.5 to 12.5 µg/mL | 12.5 to 150 µg/mL |  |  |  |  |
| CCc1c(-c2ccc(N3CC4CCCCC4(C#N)C3)cc2)[nH]c(=O)c(C(=O)O)c1O.O=C(O)C(F)(F)F (stereo not drawn) [Cpd 276, 6-[4-(3a-cyanooctahydro-2H-isoindol-2-yl)phenyl]-5-ethyl-4-hydroxy-2-oxo-1,2-dihydropyridine-3-carboxylic acid trifluoroacetate] |  | 12.5 to 150 µg/mL | 1 to 3.5 µg/mL | 12.5 to 150 µg/mL |  |  | 12.5 to 150 µg/mL | 12.5 to 150 µg/mL | 12.5 to 150 µg/mL |  |  |  | MIC [1]: < 1 µg/mL |
| CCc1c(-c2ccc(N3C[C@@H]4[C@@H](N)[C@@H]4C3)cc2)[nH]c(=O)c(C(=O)O)c1O [Cpd 285, 6-{4-[(1R,5S,6s)-6-amino-3-azabicyclo[3.1.0]hex-3-yl]phenyl}-5-ethyl-4-hydroxy-2-oxo-1,2-dihydropyridine-3-carboxylic acid] |  |  |  |  | 12.5 to 150 µg/mL (≈ 35.2 to 422 µM) |  |  |  |  | < 1 µg/mL | 1 to 3.5 µg/mL (≈ 2.81 to 9.85 µM) | < 1 µg/mL | MIC ELZ4251 [6]: ** (an MIC value between >3.5 μg/mL and ≦12.5 μg/mL is indicated by two stars (**)); MIC 35657 [8]: *** (an MIC value between >1.0 μg/mL and ≦3.5 μg/mL is indicated by three stars (***)); MIC MMX2240 [13]: * (an MIC value between >12.5 μg/mL and ≦150 μg/mL is indicated by a single star (*)); MIC 27853 [9]: ** (an MIC value between >3.5 μg/mL and ≦12.5 μg/mL is indicated by two stars (**)) |
| CCc1c(-c2ccc(N3CC[C@@H](O)C3)cc2F)[nH]c(=O)c(C(=O)O)c1O [Cpd 292, 5-ethyl-6-{2-fluoro-4-[(3R)-3-hydroxypyrrolidin-1-yl]phenyl}-4-hydroxy-2-oxo-1,2-dihydropyridine-3-carboxylic acid] | < 1 µg/mL | 1 to 3.5 µg/mL (≈ 2.76 to 9.66 µM) | 12.5 to 150 µg/mL (≈ 34.5 to 414 µM) | 12.5 to 150 µg/mL (≈ 34.5 to 414 µM) |  |  | 3.5 to 12.5 µg/mL (≈ 9.66 to 34.5 µM) | 1 to 3.5 µg/mL (≈ 2.76 to 9.66 µM) | 3.5 to 12.5 µg/mL (≈ 9.66 to 34.5 µM) |  |  |  |  |
| CCc1c(-c2ccc(N3CC[C@@H](F)C3)cc2F)[nH]c(=O)c(C(=O)O)c1O [Cpd 293, 5-ethyl-6-{2-fluoro-4-[(3R)-3-fluoropyrrolidin-1-yl]phenyl}-4-hydroxy-2-oxo-1,2-dihydropyridine-3-carboxylic acid] | < 1 µg/mL | 3.5 to 12.5 µg/mL (≈ 9.61 to 34.3 µM) | 3.5 to 12.5 µg/mL (≈ 9.61 to 34.3 µM) | 12.5 to 150 µg/mL (≈ 34.3 to 412 µM) |  |  | 12.5 to 150 µg/mL (≈ 34.3 to 412 µM) | 12.5 to 150 µg/mL (≈ 34.3 to 412 µM) | 12.5 to 150 µg/mL (≈ 34.3 to 412 µM) |  |  |  |  |
